{"source": "paper PMC2637922", "about": "“Active-Site Inhibitors of mTOR Target Rapamycin-Resistant Outputs of mTORC1 and mTORC2” (PLoS Biology, 2009)", "key": {"[1]": {"tested_on": "Akt substrates GSK3α/β, TSC2, and FoxO1/O3a in L6 myotubes", "assay": "Akt substrate phosphorylation in L6 myotubes (Western blot)", "type": "cell-based", "settings": "for phosphorylation of Akt and its substrates: insulin"}, "[2]": {"tested_on": "Akt phosphorylation in SIN1−/− MEFs", "assay": "Akt phosphorylation in primary SIN1−/− MEFs (Western blot)", "type": "cell-based, mouse", "settings": "insulin, PIK-90 625 nM, BX-795 10 μM"}, "[3]": {"tested_on": "S6K, S6 and 4EBP1 phosphorylation in L6 myotubes", "assay": "mTORC1 substrate phosphorylation in L6 myotubes (Western blot)", "settings": "Figure S3"}, "PKC-beta": {"molecular_target": "PKC-beta (Homo sapiens, UniProt P05771)", "sequence (P05771 2-621 limits assumed)": "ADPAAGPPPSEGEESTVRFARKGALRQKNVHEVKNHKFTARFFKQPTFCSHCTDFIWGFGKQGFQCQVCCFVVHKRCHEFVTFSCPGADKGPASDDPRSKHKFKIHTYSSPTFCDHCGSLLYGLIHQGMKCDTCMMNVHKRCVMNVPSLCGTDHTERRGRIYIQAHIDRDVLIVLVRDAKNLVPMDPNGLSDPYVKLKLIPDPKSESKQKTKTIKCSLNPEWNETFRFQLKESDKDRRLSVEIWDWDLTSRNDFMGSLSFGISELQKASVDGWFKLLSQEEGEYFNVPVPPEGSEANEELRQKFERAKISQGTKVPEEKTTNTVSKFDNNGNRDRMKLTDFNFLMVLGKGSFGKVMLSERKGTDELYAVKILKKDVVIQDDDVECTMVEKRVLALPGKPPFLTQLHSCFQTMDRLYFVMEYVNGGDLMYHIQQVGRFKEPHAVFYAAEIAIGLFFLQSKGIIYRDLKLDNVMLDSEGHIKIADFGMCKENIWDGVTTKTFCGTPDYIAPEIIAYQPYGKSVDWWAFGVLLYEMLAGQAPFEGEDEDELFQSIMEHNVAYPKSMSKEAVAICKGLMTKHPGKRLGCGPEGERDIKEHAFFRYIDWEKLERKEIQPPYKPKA", "settings": "in vitro, purified protein"}, "PDK1": {"molecular_target": "T1, PDK1 (Homo sapiens, UniProt O15530)", "T1 sequence (O15530 1-556)": "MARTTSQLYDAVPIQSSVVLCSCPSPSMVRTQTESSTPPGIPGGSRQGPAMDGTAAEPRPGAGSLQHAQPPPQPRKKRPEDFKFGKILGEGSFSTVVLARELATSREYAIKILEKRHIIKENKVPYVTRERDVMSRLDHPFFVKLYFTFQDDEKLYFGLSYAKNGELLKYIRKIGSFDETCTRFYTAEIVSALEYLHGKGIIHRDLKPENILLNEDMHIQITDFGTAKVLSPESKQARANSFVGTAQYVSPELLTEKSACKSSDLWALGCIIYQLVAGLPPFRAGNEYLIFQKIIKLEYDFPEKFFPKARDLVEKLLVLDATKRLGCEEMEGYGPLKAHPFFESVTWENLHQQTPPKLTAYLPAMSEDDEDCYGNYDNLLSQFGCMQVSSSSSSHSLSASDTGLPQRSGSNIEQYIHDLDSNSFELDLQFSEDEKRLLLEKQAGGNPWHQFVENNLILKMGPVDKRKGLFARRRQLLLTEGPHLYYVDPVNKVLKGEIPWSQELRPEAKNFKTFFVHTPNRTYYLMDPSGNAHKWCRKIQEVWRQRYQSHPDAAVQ", "assay": "biochemical"}, "PKCβI": {"molecular_target": "PKCβI (Homo sapiens, UniProt P05771)", "sequence (P05771 whole entry)": "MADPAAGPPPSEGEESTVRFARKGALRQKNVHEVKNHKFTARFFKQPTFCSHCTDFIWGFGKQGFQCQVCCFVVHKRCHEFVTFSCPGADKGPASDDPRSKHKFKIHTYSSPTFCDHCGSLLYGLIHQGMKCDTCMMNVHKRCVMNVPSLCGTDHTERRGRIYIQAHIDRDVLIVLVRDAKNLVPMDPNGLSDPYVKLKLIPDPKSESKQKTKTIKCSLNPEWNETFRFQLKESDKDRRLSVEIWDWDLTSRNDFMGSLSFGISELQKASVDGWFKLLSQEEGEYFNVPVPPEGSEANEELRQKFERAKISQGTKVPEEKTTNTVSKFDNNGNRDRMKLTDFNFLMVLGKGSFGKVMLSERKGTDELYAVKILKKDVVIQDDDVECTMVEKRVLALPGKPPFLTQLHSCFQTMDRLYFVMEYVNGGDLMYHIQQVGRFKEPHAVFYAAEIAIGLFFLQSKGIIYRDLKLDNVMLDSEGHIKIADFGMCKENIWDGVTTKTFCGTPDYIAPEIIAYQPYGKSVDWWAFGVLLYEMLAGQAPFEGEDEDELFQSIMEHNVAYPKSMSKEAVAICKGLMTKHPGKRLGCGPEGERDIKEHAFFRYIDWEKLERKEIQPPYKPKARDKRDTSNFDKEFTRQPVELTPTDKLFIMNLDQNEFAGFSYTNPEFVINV", "assay": "biochemical"}, "PKCβII": {"molecular_target": "PKCβII (Homo sapiens, UniProt P05771)", "sequence (P05771 1-673 isoform P05771-2)": "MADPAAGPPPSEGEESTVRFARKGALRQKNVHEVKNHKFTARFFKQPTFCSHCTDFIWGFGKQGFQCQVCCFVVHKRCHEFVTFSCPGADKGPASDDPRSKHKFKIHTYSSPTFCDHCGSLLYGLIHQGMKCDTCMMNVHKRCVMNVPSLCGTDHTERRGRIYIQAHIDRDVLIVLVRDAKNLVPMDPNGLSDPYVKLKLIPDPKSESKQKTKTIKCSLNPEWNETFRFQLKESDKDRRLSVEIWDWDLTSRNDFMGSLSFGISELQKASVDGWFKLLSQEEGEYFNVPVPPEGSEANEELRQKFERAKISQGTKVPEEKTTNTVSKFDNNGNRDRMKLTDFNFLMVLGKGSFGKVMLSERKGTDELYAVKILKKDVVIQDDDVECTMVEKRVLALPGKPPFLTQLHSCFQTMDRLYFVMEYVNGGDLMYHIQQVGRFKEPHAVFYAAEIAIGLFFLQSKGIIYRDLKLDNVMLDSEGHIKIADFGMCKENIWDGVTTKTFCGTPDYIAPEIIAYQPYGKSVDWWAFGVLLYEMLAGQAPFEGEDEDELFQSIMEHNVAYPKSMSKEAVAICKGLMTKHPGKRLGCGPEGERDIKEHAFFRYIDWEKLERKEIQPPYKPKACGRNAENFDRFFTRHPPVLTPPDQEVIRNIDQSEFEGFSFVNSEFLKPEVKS", "assay": "biochemical"}, "[4]": {"tested_on": "pT308 of S473A Akt in HEK293 cells", "type": "cell-based", "settings": "HEK293, insulin, 2.5 μM PP242"}, "[5]": {"tested_on": "new protein synthesis in primary MEFs", "assay": "35S labeling of new protein synthesis", "type": "cell-based, mouse", "settings": "overnight", "procedure": "Primary MEFs grown to 70% confluence in six-well plates were incubated overnight in either 10% Serum (Steady State), kinase inhibitors in 10% serum, or 0.1% serum (starved). Cells were then washed once with DMEM lacking cysteine and methionine (DMEM-noS), and the medium was replaced with DMEM-noS including dialyzed serum and kinase inhibitors as indicated. After incubation for 1 h, 50 μCi of Expre^35S^35S (NEN) was added to each well and the cells were labeled for 4 h. Cells were washed once with ice-cold PBS, and lysed as described above for Western blotting. Following separation by SDS-PAGE, and transfer to nitrocellulose, ^35S-labeled proteins were visualized by autoradiography with film. For quantitation, the membrane was exposed to a phosphorimager screen and the resulting image was quantified in ImageJ. Differences in ^35S incorporation were analyzed for statistical significance by one-way ANOVA with Tukey's post test using the Prism software package."}, "[6]": {"tested_on": "Akt, S6 and 4EBP1 phosphorylation in fat, skeletal muscle, and liver", "assay": "In vivo drug treatment and Western blotting of insulin signaling", "design": "species or system C57BL/6 mice", "settings": "mice; for S6 phosphorylation, all tissues examined / phosphorylation of 4EBP1 on T36/45 and S65, all tissues examined: rapamycin 5 mg/kg or PP242 20 mg/kg IP", "procedure": "Drugs were prepared in 100 μl of vehicle containing 20% DMSO, 40% PEG-400, and 40% saline. Six-wk-old male C57BL/6 mice were fasted overnight prior to drug treatment. […] 15 min after the insulin injection, the mice were killed by CO2 asphyxiation followed by cervical dislocation. Tissues were harvested and frozen on liquid nitrogen in 200 μl of cap lysis buffer. The frozen tissue was thawed on ice, manually disrupted with a mortar and pestle, and then further processed with a micro tissue-homogenizer (Fisher PowerGen 125 with Omni-Tip probe). Protein concentration of the cleared lysate was measured by Bradford assay and 5–10 μg of protein was analyzed by Western blot as described above."}, "[7]": {"tested_on": "Akt phosphorylation in wild-type MEFs", "assay": "Akt phosphorylation in primary wild-type MEFs (Western blot)", "type": "cell-based, mouse", "settings": "long-term rapamycin (100 nM, 24 h)"}, "primary wild-type MEFs": {"tested_on": "primary wild-type MEFs", "assay": "Cell proliferation assay (resazurin), wild-type MEFs", "type": "cell-based, mouse", "settings": "cultured 3 d, resazurin fluorescence"}, "[8]": {"tested_on": "4EBP1 bound to eIF4E in L6 myotube lysates", "assay": "Cap pull-down assay (m7GTP beads)", "type": "cell-based"}, "[9]": {"tested_on": "cap-dependent and IRES-dependent translation in primary MEFs", "assay": "Bicistronic reporter assay", "type": "cell-based, mouse", "settings": "overnight, 10% serum"}, "SIN1−/− MEFs": {"tested_on": "SIN1−/− MEFs", "assay": "Cell proliferation assay (resazurin), SIN1−/− MEFs", "settings": "compared with PP242"}}}
{"smiles": "O=c1[nH]c2ccccc2n1C1CCN(Cc2ccc(-c3nc4cc5nc[nH]c5cc4nc3-c3ccccc3)cc2)CC1", "note": "[Akti-1/2]", "values": [{"measurement": "FoxO1/O3a phosphorylation at T24/T32", "setting": "[1]", "value": "inhibits"}, {"measurement": "phosphorylation of Akt and its substrates", "setting": "[1]", "value": "completely inhibited"}]}
{"smiles": "O=C(NCCCNc1nc(Nc2cccc(NC(=O)N3CCCC3)c2)ncc1I)c1cccs1", "note": "[BX-795]", "values": [{"measurement": "phosphorylation of Akt T308", "setting": "[2]", "value": "blocked"}]}
{"smiles": "COc1ccc2c(c1OC)N=C(NC(=O)c1cccnc1)N1CCN=C21", "note": "[PIK-90]", "values": [{"measurement": "phosphorylation of Akt T308", "setting": "[2]", "value": "blocked"}, {"measurement": "phosphorylation of Akt and its substrates", "setting": "[1]", "value": "completely inhibited"}, {"measurement": "phosphorylation of 4EBP1 at T36/45", "setting": "[3]", "value": "did not reduce"}]}
{"smiles": "CC(C)n1nc(-c2cccc(C(=O)NC3=NCCS3)c2)c2c(N)ncnc21", "note": "[PP30]", "values": [{"measurement": "activity against PKC-beta", "setting": "PKC-beta", "value": "no activity"}, {"measurement": "IC50", "setting": "PDK1", "value": "> 10", "unit": "µM"}, {"measurement": "IC50", "setting": "PKCβI", "value": "> 10", "unit": "µM"}, {"measurement": "IC50", "setting": "PKCβII", "value": "> 10", "unit": "µM"}]}
{"smiles": "CC(C)n1nc(-c2cc3cc(O)ccc3[nH]2)c2c(N)ncnc21", "note": "[PP242]", "values": [{"measurement": "T308-P on S473A Akt", "setting": "[4]", "value": "not inhibited"}, {"measurement": "phosphorylation of Akt T308", "setting": "[2]", "value": "no effect"}, {"measurement": "reduction of total protein synthesis", "setting": "[5]", "value": "about 30%"}, {"measurement": "phosphorylation of Akt at S473 and T308 in fat and liver", "setting": "[6]; PP242 20 mg/kg IP, insulin", "value": "completely inhibit"}, {"measurement": "phosphorylation of Akt in skeletal muscle", "setting": "[6]; PP242 20 mg/kg IP, insulin", "value": "only partially able to inhibit"}, {"measurement": "S6 phosphorylation, all tissues examined", "setting": "[6]", "value": "fully inhibited"}, {"measurement": "phosphorylation of 4EBP1 on T36/45 and S65, all tissues examined", "setting": "[6]", "value": "effective at blocking"}]}
{"smiles": "CO[C@H]1C[C@@H]2CC[C@@H](C)[C@@](O)(O2)C(=O)C(=O)N2CCCC[C@H]2C(=O)O[C@H]([C@H](C)C[C@@H]2CC[C@@H](O)[C@H](OC)C2)CC(=O)[C@H](C)/C=C(\\C)[C@@H](O)[C@@H](OC)C(=O)[C@H](C)C[C@H](C)/C=C/C=C/C=C/1C", "note": "[rapamycin]", "values": [{"measurement": "Akt S473-P", "setting": "[7]", "value": "inhibited"}, {"measurement": "Akt T308-P", "setting": "[7]", "value": "reduced"}, {"measurement": "proliferation of primary MEFs", "setting": "primary wild-type MEFs", "value": "inhibited growth to the same extent"}, {"measurement": "insulin-stimulated release of 4EBP1 from eIF4E (retention on m7GTP beads)", "setting": "[8]", "value": "partial inhibition"}, {"measurement": "cap-dependent translation (renilla/firefly ratio)", "setting": "[9]", "value": "did not have a statistically significant effect"}, {"measurement": "reduction of total protein synthesis", "setting": "[5]", "value": "does not have a significant effect"}, {"measurement": "phosphorylation of Akt at S473 and T308, all tissues examined", "setting": "[6]; acute rapamycin 5 mg/kg IP, insulin", "value": "activated"}, {"measurement": "S6 phosphorylation, all tissues examined", "setting": "[6]", "value": "fully inhibited"}, {"measurement": "phosphorylation of 4EBP1 on T36/45 and S65, all tissues examined", "setting": "[6]", "value": "did not block 4EBP1 phosphorylation as completely as PP242"}, {"measurement": "blocking cell proliferation of SIN1−/− MEFs", "setting": "SIN1−/− MEFs", "value": "less effective at blocking cell proliferation than PP242"}]}
